Results: ChEMBL document CHEMBL5303573, “Mapping human microbiome drug metabolism by gut bacteria and their genes” (Nature, 2019)

Tests used:
[1] = bacteroides intestinalis, 12 h, 2 µM
Description: The drug is tested on Bacteroides intestinalis strain: DSM17393 for biotransformation. The drug concentrations were measured before and after a 12-h incubation by liquid-chromatography-coupled mass spectrometry (LC–MS)

[2] = The drug is tested on Ruminococcus gnavus strain: ATCC29149 for biotransformation. The drug concentrations were measured before and after a 12-h incubation by liquid-chromatography-coupled mass spectrometry (LC–MS); conditions: mediterraneibacter gnavus, 2 µM
[3] = The drug is tested on Coprococcus comes strain: ATCC27758 for biotransformation. The drug concentrations were measured before and after a 12-h incubation by liquid-chromatography-coupled mass spectrometry (LC–MS); type: ADME; design: dose 2 uM, timepoint 0 vs 12 hours; conditions: 2 µM
[4] = The drug is tested on Bacteroides ovatus strain: ATCC8483 for biotransformation. The drug concentrations were measured before and after a 12-h incubation by liquid-chromatography-coupled mass spectrometry (LC–MS); conditions: 2 µM
[5] = The drug is tested on Clostridium symbiosum strain: ATCC14940 for biotransformation. The drug concentrations were measured before and after a 12-h incubation by liquid-chromatography-coupled mass spectrometry (LC–MS); conditions: 2 µM
[6] = The drug is tested on Eubacterium rectale strain: ATCC33656 for biotransformation. The drug concentrations were measured before and after a 12-h incubation by liquid-chromatography-coupled mass spectrometry (LC–MS); conditions: agathobacter rectalis, 2 µM
[7] = bifidobacterium adolescentis, 12 h, 2 µM
Description: The drug is tested on Bifidobacterium adolescentis strain: ATCC 15703 for biotransformation. The drug concentrations were measured before and after a 12-h incubation by liquid-chromatography-coupled mass spectrometry (LC–MS)

[8] = The drug is tested on Eubacterium ventriosum strain: ATCC27560 for biotransformation. The drug concentrations were measured before and after a 12-h incubation by liquid-chromatography-coupled mass spectrometry (LC–MS); type: ADME; design: dose 2 uM, timepoint 0 vs 12 hours; conditions: 2 µM
[9] = The drug is tested on Dorea formicigenerans strain: ATCC27755 for biotransformation. The drug concentrations were measured before and after a 12-h incubation by liquid-chromatography-coupled mass spectrometry (LC–MS); conditions: 2 µM
[10] = The drug is tested on Bacteroides sp. WH2 strain: WH2 for biotransformation. The drug concentrations were measured before and after a 12-h incubation by liquid-chromatography-coupled mass spectrometry (LC–MS); conditions: bacteroides sp. wh2, 12 h, 2 µM
[11] = The drug is tested on Bifidobacterium ruminantium strain: fecal isolate for biotransformation. The drug concentrations were measured before and after a 12-h incubation by liquid-chromatography-coupled mass spectrometry (LC–MS); conditions: 2 µM
[12] = enterocloster bolteae, 12 h, 2 µM
Description: The drug is tested on Clostridium bolteae strain: ATCCBAA-613 for biotransformation. The drug concentrations were measured before and after a 12-h incubation by liquid-chromatography-coupled mass spectrometry (LC–MS)

[13] = limosilactobacillus reuteri cf48-3a, 12 h, 2 µM
Description: The drug is tested on Lactobacillus reuteri CF48-3A strain: BEI HM-102 for biotransformation. The drug concentrations were measured before and after a 12-h incubation by liquid-chromatography-coupled mass spectrometry (LC–MS)

[14] = The drug is tested on Blautia luti strain: DSM14534 for biotransformation. The drug concentrations were measured before and after a 12-h incubation by liquid-chromatography-coupled mass spectrometry (LC–MS); type: ADME; design: dose 2 uM, timepoint 0 vs 12 hours; conditions: 2 µM
[15] = segatella copri, 12 h, 2 µM
Description: The drug is tested on Prevotella copri strain: DSM18205 for biotransformation. The drug concentrations were measured before and after a 12-h incubation by liquid-chromatography-coupled mass spectrometry (LC–MS)

[16] = The drug is tested on Bacteroides xylanisolvens strain: DSM18836 for biotransformation. The drug concentrations were measured before and after a 12-h incubation by liquid-chromatography-coupled mass spectrometry (LC–MS); conditions: 2 µM
[17] = The drug is tested on Providencia stuartii strain: ATCC25827 for biotransformation. The drug concentrations were measured before and after a 12-h incubation by liquid-chromatography-coupled mass spectrometry (LC–MS); conditions: 2 µM
[18] = The drug is tested on Enterobacter cancerogenus strain: ATCC35316 for biotransformation. The drug concentrations were measured before and after a 12-h incubation by liquid-chromatography-coupled mass spectrometry (LC–MS); conditions: 2 µM

Compound | Bacterial Biotransformation [1] | Bacterial Biotransformation [2] | Bacterial Biotransformation [3] | Bacterial Biotransformation [4] | Bacterial Biotransformation [5] | Bacterial Biotransformation [6] | Bacterial Biotransformation [7] | Bacterial Biotransformation [8] | Bacterial Biotransformation [9] | Bacterial Biotransformation [10] | Bacterial Biotransformation [11] | Bacterial Biotransformation [12] | Bacterial Biotransformation [13] | Bacterial Biotransformation [14] | Bacterial Biotransformation [15] | Bacterial Biotransformation [16] | Bacterial Biotransformation [17] | Bacterial Biotransformation [18]
CN1CC(=O)N2[C@H](c3ccc4c(c3)OCO4)c3[nH]c4ccccc4c3C[C@@H]2C1=O | Compound NOT metabolized | Compound NOT metabolized | Compound NOT metabolized | Compound metabolized | Compound NOT metabolized | Compound NOT metabolized | Compound NOT metabolized | Compound NOT metabolized | Compound NOT metabolized | Compound NOT metabolized | Compound NOT metabolized | Compound NOT metabolized | Compound NOT metabolized | Compound NOT metabolized |  |  |  | 
CCc1cccc2c3c([nH]c12)C(CC)(CC(=O)O)OCC3 (stereo not drawn) [ETODOLAC] |  | Compound NOT metabolized | Compound NOT metabolized | Compound NOT metabolized | Compound NOT metabolized |  | Compound NOT metabolized | Compound NOT metabolized | Compound NOT metabolized | Compound NOT metabolized | Compound NOT metabolized | Compound NOT metabolized | Compound NOT metabolized | Compound NOT metabolized | Compound NOT metabolized | Compound metabolized | Compound NOT metabolized | Compound NOT metabolized
N=C(N)NC(=O)Cc1c(Cl)cccc1Cl [GUANFACINE] | Compound NOT metabolized | Compound NOT metabolized | Compound NOT metabolized | Compound NOT metabolized | Compound NOT metabolized |  | Compound NOT metabolized |  | Compound NOT metabolized | Compound NOT metabolized | Compound NOT metabolized | Compound NOT metabolized |  | Compound NOT metabolized |  | Compound NOT metabolized | Compound NOT metabolized | Compound NOT metabolized
O=C([O-])C[C@H](O)C[C@H](O)/C=C/c1c(C2CC2)nc2ccccc2c1-c1ccc(F)cc1.O=C([O-])C[C@H](O)C[C@H](O)/C=C/c1c(C2CC2)nc2ccccc2c1-c1ccc(F)cc1.[Ca+2] [PITAVASTATIN CALCIUM] | Compound NOT metabolized | Compound NOT metabolized | Compound NOT metabolized | Compound NOT metabolized | Compound NOT metabolized | Compound NOT metabolized | Compound NOT metabolized | Compound NOT metabolized | Compound NOT metabolized | Compound NOT metabolized | Compound NOT metabolized | Compound NOT metabolized | Compound NOT metabolized | Compound NOT metabolized | Compound NOT metabolized | Compound NOT metabolized |  | Compound NOT metabolized
CNNCc1ccc(C(=O)NC(C)C)cc1 [PROCARBAZINE] |  | Compound NOT metabolized | Compound NOT metabolized | Compound NOT metabolized | Compound NOT metabolized | Compound NOT metabolized | Compound NOT metabolized | Compound NOT metabolized | Compound NOT metabolized |  |  | Compound NOT metabolized | Compound NOT metabolized | Compound NOT metabolized | Compound NOT metabolized | Compound NOT metabolized | Compound NOT metabolized | Compound NOT metabolized
O=C(O)CCC(=O)O.O=C(O[C@H]1CN2CCC1CC2)N1CCc2ccccc2[C@@H]1c1ccccc1 [SOLIFENACIN SUCCINATE] | Compound NOT metabolized | Compound NOT metabolized | Compound NOT metabolized | Compound NOT metabolized | Compound NOT metabolized | Compound NOT metabolized | Compound NOT metabolized | Compound NOT metabolized | Compound NOT metabolized | Compound NOT metabolized | Compound NOT metabolized | Compound NOT metabolized | Compound NOT metabolized | Compound NOT metabolized | Compound NOT metabolized |  | Compound NOT metabolized | Compound NOT metabolized
O=C(CCCN1CCC2(CC1)C(=O)NCN2c1ccccc1)c1ccc(F)cc1 [SPIPERONE] | Compound NOT metabolized | Compound NOT metabolized |  | Compound NOT metabolized | Compound NOT metabolized |  | Compound NOT metabolized | Compound NOT metabolized | Compound NOT metabolized | Compound NOT metabolized | Compound NOT metabolized | Compound NOT metabolized | Compound NOT metabolized | Compound NOT metabolized | Compound NOT metabolized | Compound NOT metabolized |  | Compound NOT metabolized
CCN1CCCC1CNC(=O)c1cc(S(N)(=O)=O)ccc1OC (stereo not drawn) [SULPIRIDE] | Compound NOT metabolized | Compound NOT metabolized | Compound NOT metabolized | Compound NOT metabolized | Compound NOT metabolized | Compound NOT metabolized | Compound NOT metabolized | Compound NOT metabolized | Compound NOT metabolized | Compound NOT metabolized |  | Compound NOT metabolized | Compound NOT metabolized | Compound NOT metabolized |  | Compound NOT metabolized | Compound NOT metabolized | Compound NOT metabolized
CNS(=O)(=O)Cc1ccc2[nH]cc(CCN(C)C)c2c1.O=C(O)CCC(=O)O [SUMATRIPTAN SUCCINATE] | Compound NOT metabolized | Compound NOT metabolized | Compound NOT metabolized |  | Compound NOT metabolized | Compound NOT metabolized | Compound NOT metabolized | Compound NOT metabolized | Compound NOT metabolized | Compound NOT metabolized | Compound NOT metabolized | Compound NOT metabolized | Compound NOT metabolized | Compound NOT metabolized | Compound NOT metabolized | Compound NOT metabolized | Compound NOT metabolized | Compound metabolized
CCN(C(C)=O)c1cccc(-c2ccnc3c(C#N)cnn23)c1 [ZALEPLON] | Compound NOT metabolized | Compound NOT metabolized | Compound NOT metabolized | Compound NOT metabolized | Compound NOT metabolized |  |  | Compound NOT metabolized | Compound NOT metabolized |  | Compound NOT metabolized |  |  | Compound NOT metabolized | Compound NOT metabolized | Compound metabolized | Compound NOT metabolized | 
